# Test system: GMPPNP-loaded H-Ras or GTP-loaded K-Ras
# Assay: Fluorescence polarization competition assay with TAMRA-labeled probe R4007
# Assay type: binding, human
# Conditions: 120 nM Ras, 30 nM probe R4007, 60 minutes at room temperature; read-out: Probe displacement (nM IC50)
# Procedure: R4000 was evaluated for competition with a TAMRA labeled probe (R4007) based on peptide R4000. The assay was performed in 384-well black, non-binding plates (Greiner Bio-One, Monroe, N.C.). GMPPNP-loaded H-Ras or GTP-loaded K-Ras, diluted in FP assay buffer (20 mM Tris-HCl, pH 7.5, 50 mM NaCl, 5 mM MgCl2, 1 mM EDTA, 0.002% Triton-X-100) for a final concentration of 120 nM was incubated with 30 nM R4007 for 20 minutes at room temperature. R4000 was serially diluted, added to the assay and incubated for 60 minutes at room temperature. Fluorescence polarization was detected with a SpectraMax Paradigm plate reader (Molecular Devices, Sunnyvale, Calif.) using the Rhodamine FP detection cartridge (535 nm/595 nm). Data was analyzed using GraphPad Prism and Ki determined using One Site Ki Curve fitting model.
# Peptides were evaluated for competition with R4007, a probe consisting of TAMRA-labeled R4000, using a fluorescence polarization (FP) competition assay. The assay was performed in 384-well black, non-binding plates (Greiner Bio-One, Monroe, N.C.). GMPPNP-loaded H-Ras or GTP- loaded K-Ras, diluted in FP assay buffer (20 mM Tris-HCl, pH 7.5, 50 mM NaCl, 5 mM MgCl2, 1 mM EDTA, 0.002% Triton-X-100) for a final concentration of 120 nM was incubated with 30 nM probe for 20 minutes at room temperature. Peptides were serially diluted, added to the assay and incubated for 60 minutes at room temperature. Fluorescence was detected with a SpectraMax Paradigm plate reader (Molecular Devices, Sunnyvale, Calif.) using the Rhodamine FP detection cartridge (535 nm/595 nm). Data was analyzed and Ki determined using a One Site Ki Curve fitting model. Percent inhibition for each data point was calculated relative to the maximal binding in test compound-free control wells (showing no probe displacement) and Ras-free control wells (showing no probe binding) and the half-maximal inhibitory concentration (IC50), based on probe displacement, was determined.
row,IC50 [nM],SMILES
1,85,"C=CC(=O)NCCCC[C@@H]1NC(=O)[C@H](C)NC(=O)[C@H](C(C)(C)C)NC(=O)[C@H](Cc2ccc(O)cc2)NC(=O)[C@@H](NC(=O)[C@H](CCC)NC(C)=O)CSCc2cccc(c2)CSC[C@@H](C(N)=O)NC(=O)CN(C)C(=O)[C@H](Cc2ccc(F)cc2)N(C)C(=O)[C@H](Cc2ccc(O)cc2)NC(=O)[C@H](Cc2c[nH]c3ncccc23)NC(=O)[C@H](c2ccccc2)NC(=O)[C@H](C)N(C)C1=O (relative stereo) [Compound R4123, ACE-NVA-CYS*-TYR-TBG-ALA-KAC-NMA-PHG-7AW-TYR-MFF-SAR-CYS*-NH2]"
2,88.4,"C[C@H]1C(=O)N[C@@H](c2ccccc2)C(=O)N[C@@H](Cc2c[nH]c3ncccc23)C(=O)N[C@@H](Cc2ccc(O)cc2)C(=O)N(C)[C@@H](Cc2ccc(F)cc2)C(=O)N(C)CC(=O)NCCOCCOCCC(=O)N[C@@H](Cc2ccc(O)cc2)C(=O)N[C@@H](C(C)(C)C)C(=O)N[C@@H](CCCCN)C(=O)N[C@@H](Cc2c[nH]cn2)C(=O)N1C (relative stereo) [Compound R4124, PEG2PA*-TYR-TBG-LYS-HIS-NMA-PHG-7AW-TYR-MFF-SAR*]"
3,110,"CCC[C@H](NC(C)=O)C(=O)N[C@H]1CSCc2cccc(c2)CSC[C@@H](C(N)=O)NC(=O)CN(C)C(=O)[C@H](Cc2ccc(F)cc2)N(C)C(=O)[C@H](Cc2ccc(O)cc2)NC(=O)[C@H](Cc2c[nH]c3ncccc23)NC(=O)[C@H](c2ccccc2)NC(=O)[C@H](CCCCN)N(C)C(=O)[C@H](Cc2c[nH]cn2)NC(=O)[C@H](C)NC(=O)[C@H](C(C)(C)C)NC(=O)[C@H](Cc2ccc(O)cc2)NC1=O (relative stereo) [Compound R4125, ACE-NVA-CYS*-TYR-TBG-ALA-HIS-NMK-PHG-7AW-TYR-MFF-SAR-CYS*-NH2]"
4,127,"CCC[C@H](NC(C)=O)C(=O)N[C@H]1CSCc2cccc(c2)CSC[C@@H](C(N)=O)NC(=O)CN(C)C(=O)[C@H](Cc2ccc(F)cc2)N(C)C(=O)[C@H](Cc2ccc(O)cc2)NC(=O)[C@H](Cc2c[nH]c3ncccc23)NC(=O)[C@H](c2ccccc2)NC(=O)[C@H](C)N(C)C(=O)[C@H](C)NC(=O)[C@H](CCCCN)NC(=O)[C@H](C(C)(C)C)NC(=O)[C@H](Cc2ccc(O)cc2)NC1=O (relative stereo) [Compound R4126, ACE-NVA-CYS*-TYR-TBG-LYS-ALA-NMA-PHG-7AW-TYR-MFF-SAR-CYS*-NH2]"
5,148,"CCC[C@H](NC(C)=O)C(=O)N[C@H]1CSCc2cccc(c2)CSC[C@@H](C(=O)NCC(=O)NCC(=O)NCC(=O)N[C@@H](CS)C(=O)N[C@H](C(=O)N[C@H](C(=O)N[C@@H](CCSC)C(N)=O)[C@@H](C)CC)C(C)C)NC(=O)CN(C)C(=O)[C@H](Cc2ccc(F)cc2)N(C)C(=O)[C@H](Cc2ccc(O)cc2)NC(=O)[C@H](Cc2c[nH]c3ncccc23)NC(=O)[C@H](c2ccccc2)NC(=O)[C@H](C)N(C)C(=O)[C@H](Cc2c[nH]cn2)NC(=O)[C@H](CCCCN)NC(=O)[C@H](C(C)(C)C)NC(=O)[C@H](Cc2ccc(O)cc2)NC1=O (relative stereo) [Compound R4127, ACE-NVA-CYS*-TYR-TBG-LYS-HIS-NMA-PHG-7AW-TYR-MFF-SAR-CYS*-GLY-GLY-GLY-CYS-VAL-ILE-MET-NH2]"
6,227,"CCC[C@H](NC(C)=O)C(=O)N[C@H]1CSCc2cccc(c2)CSC[C@@H](C(=O)N[C@H](CO)C(=O)N[C@H](C)C(=O)N[C@@H](CCCCN)C(=O)N[C@@H](CSSC(C)(C)C)C(=O)N[C@H](C(=O)N[C@H](C(=O)N[C@@H](CCSC)C(=O)O)[C@@H](C)CC)C(C)C)NC(=O)CN(C)C(=O)[C@H](Cc2ccc(F)cc2)N(C)C(=O)[C@H](Cc2ccc(O)cc2)NC(=O)[C@H](Cc2c[nH]c3ncccc23)NC(=O)[C@H](c2ccccc2)NC(=O)[C@H](C)N(C)C(=O)[C@H](Cc2c[nH]cn2)NC(=O)[C@H](CCCCN)NC(=O)[C@H](C(C)(C)C)NC(=O)[C@H](Cc2ccc(O)cc2)N(C)C1=O (relative stereo) [Compound R4129, ACE-NVA-CYS*-NMY-TBG-LYS-HIS-NMA-PHG-7AW-TYR-MFF-SAR-CYS*-DSER-DALA-LYS-TDSPA-VAL-ILE-MET]"
7,278,"CCC[C@H](NC(C)=O)C(=O)N[C@H]1CSCc2cccc(c2)CSC[C@@H](C(=O)NCC(=O)NCC(=O)NCC(=O)N[C@@H](CS)C(=O)N[C@H](C(=O)N[C@H](C(=O)N[C@@H](CCSC)C(=O)O)[C@@H](C)CC)C(C)C)NC(=O)CN(C)C(=O)[C@H](Cc2ccc(F)cc2)N(C)C(=O)[C@H](Cc2ccc(O)cc2)NC(=O)[C@H](Cc2c[nH]c3ncccc23)NC(=O)[C@H](c2ccccc2)NC(=O)[C@H](C)N(C)C(=O)[C@H](Cc2c[nH]cn2)NC(=O)[C@H](CCCCN)NC(=O)[C@H](C(C)(C)C)NC(=O)[C@H](Cc2ccc(O)cc2)NC1=O (relative stereo) [Compound R4131, ACE-NVA-CYS*-TYR-TBG-LYS-HIS-NMA-PHG-7AW-TYR-MFF-SAR-CYS*-GLY-GLY-GLY-CYS-VAL-ILE-MET]"
8,281,"CCC[C@H](NC(C)=O)C(=O)N[C@H]1CSCc2cccc(c2)CSC[C@@H](C(N)=O)NC(=O)CN(C)C(=O)[C@H](Cc2ccc(F)cc2)N(C)C(=O)[C@H](Cc2ccc(O)cc2)NC(=O)[C@H](Cc2c[nH]c3ncccc23)NC(=O)[C@H](c2ccccc2)NC(=O)[C@H](CO)N(C)C(=O)[C@H](Cc2c[nH]cn2)NC(=O)[C@H](CCCCN)NC(=O)[C@H](C(C)(C)C)NC(=O)[C@H](Cc2ccc(O)cc2)NC1=O (relative stereo) [Compound R4132, ACE-NVA-CYS*-TYR-TBG-LYS-HIS-NMS-PHG-SA7AW-TYR-MFF-R-CYS*-NH2]"
9,342,"C=CC(=O)NCCCC[C@H]1C(=O)N[C@@H](c2ccccc2)C(=O)N[C@@H](Cc2c[nH]c3ncccc23)C(=O)N[C@@H](Cc2ccc(O)cc2)C(=O)N(C)[C@@H](Cc2ccc(F)cc2)C(=O)N(C)CC(=O)N[C@H](C(N)=O)CSCc2cccc(c2)CSC[C@H](NC(=O)[C@H](CCC)NC(C)=O)C(=O)N[C@@H](Cc2ccc(O)cc2)C(=O)N[C@@H](C(C)(C)C)C(=O)N[C@@H](C)C(=O)N[C@@H](Cc2c[nH]cn2)C(=O)N1C (relative stereo) [Compound R4133, ACE-NVA-CYS*-TYR-TBG-ALA-HIS-MKAC-PHG-7AW-TYR-MFF-SAR-CYS*-NH2]"
10,346,"CCC[C@H](NC(C)=O)C(=O)N[C@H]1CSCc2cccc(c2)CSC[C@@H](C(N)=O)NC(=O)CN(C)C(=O)[C@H](Cc2ccc(F)cc2)N(C)C(=O)[C@H](Cc2ccc(O)cc2)NC(=O)[C@H](Cc2c[nH]c3ncccc23)NC(=O)[C@H](c2ccccc2)NC(=O)[C@H](C)N(C)C(=O)[C@H](Cc2c[nH]cn2)NC(=O)[C@H](CCCCNC(=O)c2ccc(N(C)C)cc2)NC(=O)[C@H](C(C)(C)C)NC(=O)[C@H](Cc2ccc(O)cc2)NC1=O (relative stereo) [Compound R4134, ACE-NVA-CYS*-TYR-TBG-DMABZK1-HIS-NMA-PHG-7AW-TYR-MFF-SAR-CYS*-NH2]"
11,392,"C=CC(=O)NC[C@@H]1NC(=O)[C@H](C)NC(=O)[C@H](C(C)(C)C)NC(=O)[C@H](Cc2ccc(O)cc2)NC(=O)[C@@H](NC(=O)[C@H](CCC)NC(C)=O)CSCc2cccc(c2)CSC[C@@H](C(N)=O)NC(=O)CN(C)C(=O)[C@H](Cc2ccc(F)cc2)N(C)C(=O)[C@H](Cc2ccc(O)cc2)NC(=O)[C@H](Cc2c[nH]c3ncccc23)NC(=O)[C@H](c2ccccc2)NC(=O)[C@H](C)N(C)C1=O (relative stereo) [Compound R4136, ACE-NVA-CYS*-TYR-TBG-ALA-DABAC2-NMA-PHG-7AW-TYR-MFF-SAR-CYS*-NH2]"
12,461,"CCC[C@H](NC(=O)CCCC(=O)O)C(=O)N[C@H]1CSCc2cccc(c2)CSC[C@@H](C(N)=O)NC(=O)CN(C)C(=O)[C@H](Cc2ccc(F)cc2)N(C)C(=O)[C@H](Cc2ccc(O)cc2)NC(=O)[C@H](Cc2c[nH]c3ncccc23)NC(=O)[C@H](c2ccccc2)NC(=O)[C@H](C)N(C)C(=O)[C@H](Cc2c[nH]cn2)NC(=O)[C@H](CCCCNC(CC(C)C)=C2C(=O)CC(C)(C)CC2=O)NC(=O)[C@H](C(C)(C)C)NC(=O)[C@H](Cc2ccc(O)cc2)NC1=O (relative stereo) [Compound R4138, GLA-NVA-CYS*-TYR-TBG-LYS-(DDE)-HIS-NMA-PHG-7AW-TYR-MFF-SAR-CYS*-NH2]"

row,SMILES,IC50 [nM]
1,"CCC[C@H](NC(C)=O)C(=O)N[C@H]1CSCc2cccc(c2)CSC[C@@H](C(=O)O)NC(=O)CN(C)C(=O)[C@H](Cc2ccc(F)cc2)N(C)C(=O)[C@H](Cc2ccc(O)cc2)NC(=O)[C@H](Cc2c[nH]c3ncccc23)NC(=O)[C@H](c2ccccc2)NC(=O)[C@H](C)N(C)C(=O)[C@H](Cc2c[nH]cn2)NC(=O)[C@H](CCCCNC(CC(C)C)=C2C(=O)CC(C)(C)CC2=O)NC(=O)[C@H](C(C)(C)C)NC(=O)[C@H](Cc2ccc(O)cc2)NC1=O (relative stereo) [Compound R4135, ACE-NVA-CYS*-TYR-TBG-LYS-(DDE)-HIS-NMA-PHG-7AW-TYR-MFF-SAR-CYS*]",364

# — patent publication US10954287B2, “Ras binding peptides and methods of use” (Ra Pharmaceuticals, Inc., priority 2016, dated 2021)
